# From US7825253B2, “2-aminoquinoline derivatives” (Hoffmann-La Roche Inc., priority 2006, dated 2010)
# Molecular target: T1, recombinant human 5-HT5A receptor (Homo sapiens, UniProt P47898)
# T1 construct: expressed in transfected cells; host or cells: Human Embryonic Kidney-EBNA (HEK-EBNA) cells, transient cDNA expression; membranes
# Experiment: [3H]LSD radioligand binding assay
# Conditions: not given
# Method: A [^3H]LSD radioligand binding assay was used to determine the affinity of the compounds for the recombinant human 5-HT5A receptor, in membranes from transiently (cDNA) expressed 5-HT5A receptors in Human Embryonic Kidney-EBNA (HEK-EBNA) cells. Assay buffer consisted of Tris (50 mM) buffer containing 1 mM EGTA, 10 mM MgCl2 (pH 7.4) and 10 μM pargyline. The binding assay was carried out in 96-well-plates in the presence of [^3H]LSD (approximately 1 nM), approximately 2 μg/well of membrane protein, and 0.5 mg of Ysi-poly-l-lysine SPA beads in a final volume of 200 μl of buffer. Non-specific binding was defined using methiothepin 2 μM. Compounds were tested at 10 concentrations. All assays were conducted in duplicate and repeated at least two times. Assay plates were incubated for 120 min at room temperature before centrifugation. Bound ligand was determined using a Packard Topcount scintillation counter. IC50 values were calculated using a non-linear curve fitting program and Ki values calculated using the Cheng-Prussoff equation.
# T1 sequence (P47898 whole entry): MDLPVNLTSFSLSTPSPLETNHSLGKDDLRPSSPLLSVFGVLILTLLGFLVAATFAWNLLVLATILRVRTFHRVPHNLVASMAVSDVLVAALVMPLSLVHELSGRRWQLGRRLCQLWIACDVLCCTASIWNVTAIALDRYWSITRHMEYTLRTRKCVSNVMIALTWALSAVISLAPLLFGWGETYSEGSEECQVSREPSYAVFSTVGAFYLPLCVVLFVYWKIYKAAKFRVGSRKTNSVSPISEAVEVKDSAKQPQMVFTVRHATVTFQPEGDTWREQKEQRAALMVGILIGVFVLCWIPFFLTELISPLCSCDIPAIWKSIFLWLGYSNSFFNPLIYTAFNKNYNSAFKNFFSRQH
row,activity at the 5-HT5A receptor (in words),SMILES
1,more active,"CC(Nc1cccc2nc(Nc3cccc4c3OC(C)(C)C4)ccc12)c1cc(F)cc(F)c1 (single isomer, unassigned; (+)) [Example 158, (+)-N5-[1-(3,5-Difluoro-phenyl)-ethyl]-N2-(2,2-dimethyl-2,3-dihydro-benzofuran-7-yl)-quinoline-2,5-diamine]"

# Same assay, conditions: [3H]LSD approx. 1 nM; membranes from HEK-EBNA cells transiently expressing 5-HT5A; Ki from IC50 by Cheng-Prussoff
row,SMILES,Ki [nM]
1,"COc1ccccc1CNc1ccc2c(OCCS(=O)(=O)c3ccccc3)cccc2n1 [Example 84, [5-(2-Benzenesulfonyl-ethoxy)-quinolin-2-yl]-(2-methoxy-benzyl)-amine]",88.3
2,"Cc1ccc(CNc2ccc3c(CNc4ccccn4)cccc3n2)o1 [Example 37, (5-Methyl-furan-2-ylmethyl)-[5-(pyridin-2-ylaminomethyl)-quinolin-2-yl]-amine]",49.5
3,"Cc1ccc(CNc2ccc3c(NCc4cccc(S(N)(=O)=O)c4)cccc3n2)o1 [Example 35, 3-({2-[(5-Methyl-furan-2-ylmethyl)-amino]-quinolin-5-ylamino}-methyl)-benzenesulfonamide]",17
4,"Cc1ccc(CNc2ccc3c(NCc4cccc5c4OCO5)cccc3n2)o1 [Example 103, N5-Benzo[1,3]dioxol-4-ylmethyl-N2-(5-methyl-furan-2-ylmethyl)-quinoline-2,5-diamine]",6.57
5,"COc1ncccc1CNc1cccc2nc(NCc3ccc(C)o3)ccc12 [Example 27, N5-(2-Methoxy-pyridin-3-ylmethyl)-N2-(5-methyl-furan-2-ylmethyl)-quinoline-2,5-diamine]",43
6,"O=S(=O)(Nc1cccc2nc(NCCOc3ccccc3)ccc12)c1cc(F)cc(F)c1 [Example 77, 3,5-Difluoro-N-[2-(2-phenoxy-ethylamino)-quinolin-5-yl]-benzenesulfonamide]",19.1
7,"O=S(=O)(Nc1cccc2nc(NCc3ccccc3OC(F)(F)F)ccc12)c1ccc(F)cc1 [Example 108, 4-Fluoro-N-[2-(2-trifluoromethoxy-benzylamino)-quinolin-5-yl]-benzenesulfonamide]",49.6
8,"Cc1ccc(CNc2ccc3c(N[C@H]4CCS(=O)(=O)c5ccccc54)cccc3n2)o1 [Example 152, (R)— and (S)—N5-((S)-1,1-Dioxo-1l6-thiochroman-4-yl)-N2-(5-methyl-furan-2-ylmethyl)-quinoline-2,5-diamine]",14.7
9,"Cc1cccc(CNc2cccc3nc(NCc4ccc(C)o4)ccc23)n1 [Example 29, N2-(5-Methyl-furan-2-ylmethyl)-N5-(6-methyl-pyridin-2-ylmethyl)-quinoline-2,5-diamine]",17.5
10,"Cc1ccc(CNc2ccc3c(NCc4cnn[nH]4)cccc3n2)o1 [Example 115, N2-(5-Methyl-furan-2-ylmethyl)-N5-(3H-[1,2,3]triazol-4-ylmethyl)-quinoline-2,5-diamine]",35.3
11,"Cc1nc(CNc2cccc3nc(NCc4ccc(C)o4)ccc23)c[nH]1 [Example 90, N2-(5-Methyl-furan-2-ylmethyl)-N5-(2-methyl-1H-imidazol-4-ylmethyl)-quinoline-2,5-diamine]",52.9
12,"COc1ccccc1CNc1ccc2c(NCc3nccs3)cccc2n1 [Example 110, N2-(2-Methoxy-benzyl)-N5-thiazol-2-ylmethyl-quinoline-2,5-diamine]",16.8

# Next, values leading:
row,Ki [nM],SMILES
1,35.6,"COc1ccccc1CNc1ccc2c(C(=N)c3ccc(F)cc3)cccc2n1 [Example 136, {5-[(4-Fluoro-phenyl)-imino-methyl]-quinolin-2-yl}-(2-methoxy-benzyl)-amine]"
2,86,COc1ccccc1CNc1ccc2c(CNC(=O)c3ccc(F)cc3)cccc2n1 [Example 146]
3,7.19,"COc1ccccc1CNc1ccc2c(C(=NO)c3ccc(F)cc3)cccc2n1 [Example 167, (4-Fluoro-phenyl)-[2-(2-methoxy-benzylamino)-quinolin-5-yl]-methanone oxime]"
4,3.1,"CC(Nc1cccc2nc(Nc3cccc4c3OC(C)(C)C4)ccc12)c1cc(F)cc(F)c1 (single isomer, unassigned; (+)) [Example 158, (+)-N5-[1-(3,5-Difluoro-phenyl)-ethyl]-N2-(2,2-dimethyl-2,3-dihydro-benzofuran-7-yl)-quinoline-2,5-diamine]"
5,8.45,"Cc1ccc(CNc2ccc3c(Nc4ccc(F)c5[nH]ccc45)cccc3n2)o1 [Example 119, N5-(7-Fluoro-1H-indol-4-yl)-N2-(5-methyl-furan-2-ylmethyl)-quinoline-2,5-diamine]"
6,25.5,"Cc1ccc(CNc2ccc3c(NS(=O)(=O)Nc4ccc(F)cc4)cccc3n2)o1 [Example 154, N-(2-{[(5-methyl-2-furyl)methyl]amino}quinolin-5-yl)-N′-(4-fluorophenyl)sulfamide]"
7,15.8,"CC(Nc1cccc2nc(Nc3cccc4c3OC(C)(C)C4)ccc12)c1nccs1 (racemic) [Example 160, rac-N2-(2,2-Dimethyl-2,3-dihydro-benzofuran-7-yl)-N5-(1-thiazol-2-yl-ethyl)-quinoline-2,5-diamine]"
8,37.1,"Cc1ccc(CNc2ccc3c(NC4CCOc5ccccc54)cccc3n2)o1 (racemic) [Example 142, rac-N5-Chroman-4-yl-N2-(5-methyl-furan-2-ylmethyl)-quinoline-2,5-diamine]"
9,4.74,"CC(Nc1cccc2nc(Nc3cccc4c3OC(C)(C)C4)ccc12)c1cc(F)cc(F)c1 (racemic) [Example 151, rac-N5-[1-(3,5-Difluoro-phenyl)-ethyl]-N2-(2,2-dimethyl-2,3-dihydro-benzofuran-7-yl)-quinoline-2,5-diamine]"
10,79.7,"Cc1cc2cccc(Nc3ccc4c(NS(=O)(=O)c5ccc(F)cc5)cccc4n3)c2o1 [Example 128, 4-Fluoro-N-[2-(2-methyl-benzofuran-7-ylamino)-quinolin-5-yl]-benzenesulfonamide]"
11,35.5,"O=S(=O)(Nc1cccc2nc(Nc3cccc4c3OCC4)ccc12)c1cc(F)cc(F)c1 [Example 139, N-[2-(2,3-Dihydro-benzofuran-7-ylamino)-quinolin-5-yl]-3,5-difluoro-benzenesulfonamide]"
12,11.9,"CC1Cc2cccc(Nc3ccc4c(NCc5cccc6[nH]ccc56)cccc4n3)c2O1 (stereo not shown) [Example 140, N5-(1H-Indol-4-ylmethyl)-N2-(2-methyl-2,3-dihydro-benzofuran-7-yl)-quinoline-2,5-diamine]"
13,16.6,"c1cc(Nc2ccc3c(NCc4cccc5[nH]ccc45)cccc3n2)cc(C2CC2)c1 [Example 164, N2-(3-Cyclopropyl-phenyl)-N5-(1H-indol-4-ylmethyl)-quinoline-2,5-diamine]"
14,3.08,"CC1(C)Cc2cccc(Nc3ccc4c(NCc5ccc6[nH]cnc6c5)cccc4n3)c2O1 [Example 148, N5-(1H-Benzoimidazol-5-ylmethyl)-N2-(2,2-dimethyl-2,3-dihydro-benzofuran-7-yl)-quinoline-2,5-diamine]"

# Test system: not given
# Experiment: not given
# Conditions: not given
row,melting point [°C],SMILES
1,173,"Cc1ccc(CNc2ccc3c(CNC(=O)c4ccc(F)cc4)cccc3n2)o1 [Example 126, 4-Fluoro-N-{2-[(5-methyl-furan-2-ylmethyl)-amino]-quinolin-5-ylmethyl}-benzamide]"
2,155,"COc1ccccc1CNc1ccc2c(C(=N)c3ccc(F)cc3)cccc2n1 [Example 136, {5-[(4-Fluoro-phenyl)-imino-methyl]-quinolin-2-yl}-(2-methoxy-benzyl)-amine]"
3,162.5,COc1ccccc1CNc1ccc2c(CNC(=O)c3ccc(F)cc3)cccc2n1 [Example 146]
4,121.5,"COc1ccccc1CNc1ccc2c(-c3noc(C)n3)cccc2n1 [Example 150, (2-Methoxy-benzyl)-[5-(5-methyl-[1,2,4]oxadiazol-3-yl)-quinolin-2-yl]-amine]"
